Read-outs that look alike come from different tables or passages of the source.
System: PMA-differentiated THP-1 cells
Experiment: IL-1β production in PMA-differentiated THP-1 cells stimulated with gramicidin (hTHP-1 assay containing 2% fetal bovine serum; Procedures 1 and 2)
Assay type: cell-based, human
Conditions: 2% fetal bovine serum
Summary of the method: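 Human monocytic THP-1 cells, matured overnight with PMA at 20 ng/ml, are seeded in low-serum (2% FBS) RPMI. Test compounds, at final concentrations from 100 down to 0.0017 μM, precede gramicidin (5 μM, 2 h) by one hour. Released IL-1β is then determined by HTRF.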

[1] = Homo sapiens, THP-1, Table B2, numeric bounds, read-out: hTHP-1 IC50
[2] = Homo sapiens, THP-1, Table B1, class symbols, read-out: Average IC50 of compounds in hTHP-1 assay: hTHP-1 IC50
[3] = Homo sapiens, THP-1, Table B3, hTHP-1 assay, class symbols, read-out: IC50
[4] = Table B2, class symbols, read-out: hTHP-1 IC50
[5] = Table B1, class symbols, read-out: Average IC50 of compounds in hTHP-1 assay: hTHP-1 IC50
[6] = Table B4, class symbols, read-out: hTHP-1 IC50
[7] = Homo sapiens, THP-1, Table B2, class symbols, read-out: hTHP-1 IC50

Q: With `Cc1c(C(F)(F)F)nc2c(c1NC(=O)N=S(N)(=O)c1cnc(C(C)(O)CO)s1)CCC2` (single isomer, unassigned) [Compound 605d, (R, S) and (S, S) or (R, R) and (S, R)-2-(l,2-Dihydroxypropan-2-yl)-N′-((3-methyl-2-(trifluoromethyl)-6,7-dihydro-5H-cyclopenta[b]pyridin-4-yl)carbamoyl) thiazole-5-sulfonimidamide] as the compound, how does the IC50 [1] read?
A: > 30 µM

Q: `Cn1nc(S(N)(=O)=NC(=O)Nc2c3c(nc4c2CCC4)CCC3)cc1C(C)(C)O` (centres unmarked) [Compound 158, N-((1,2,3,5,6,7-hexahydrodicyclopenta[b,e]pyridin-8-yl)carbamoyl)-5-(2-hydroxypropan-2-yl)-1-methyl-1H-pyrazole-3-sulfonimidamide] was tested. Which IC50 [2] did it give?
A: 1 to 5 µM

Q: With `C[C@@](O)(CO)c1cc(F)c([S@@](N)(=O)=NC(=O)Nc2c3c(nc4c2CCC42CC2)CCC3)s1` [Example 675, (S)-5-((R)-1,2-dihydroxypropan-2-yl)-3-fluoro-N′-((1′,5′,6′,7′-tetrahydro-2′H-spiro[cyclopropane-1,3′-dicyclopenta[b,e]pyridin]-8′-yl)carbamoyl)thiophene-2-sulfonimidamide] as the compound, how does the IC50 [3] read?
A: 5 to 30 µM

Q: For `CC(C)(O)c1sc(S(N)(=O)=NC(=O)Nc2c3c(nc4c2CCC4)CCC3)cc1Cl` (single isomer, unassigned) [Compound 688b, (S) or (R)-4-Chloro-N′-((1,2,3,5,6,7-hexahydrodicyclopenta [b,e]pyridin-8-yl)carbamoyl)-5-(2-hydroxypropan-2-yl)thiophene-2-sulfonimidamide], which IC50 [4] is on record?
A: 5 to 30 µM

Q: For `CC(C)n1cc(CO)c(S(N)(=O)=NC(=O)Nc2c3c(nc4c2CCC4(C)C)CCC3)n1` (single isomer, unassigned) [Compound 682a, (S) or (R)-N′-((3,3-dimethyl-1,2,3,5,6,7-hexahydrodicyclopenta [b,e]pyridin-8-yl)carbamoyl)-4-(hydroxymethyl)-1-isopropyl-1H-pyrazole-3-sulfonimidamide], which IC50 [1] is on record?
A: > 30 µM

Q: For `CC(C)c1ncc(F)c(C(C)C)c1NC(=O)N=S(N)(=O)c1cnc(C(C)(C)O)s1` (single isomer, unassigned) [Compound 164a, (R) or (S)-N′-((5-fluoro-2,4-diisopropylpyridin-3-yl)carbamoyl)-2-(2-hydroxypropan-2-yl)thiazole-5-sulfonimidamide], which IC50 [5] is on record?
A: 1 to 5 µM

Q: With `Cc1c(C(F)(F)F)nc2c(c1NC(=O)N=S(N)(=O)c1nn(-c3ccccc3)cc1F)CCC2` (single isomer, unassigned) [Example 783, (R) or (S)-4-fluoro-N′-((3-methyl-2-(trifluoromethyl)-6,7-dihydro-5H-cyclopenta [b]pyridin-4-yl)carbamoyl)-1-phenyl-1H-pyrazole-3-sulfonimidamide] as the compound, how does the IC50 [6] read?
A: 1 to 5 µM

Q: For `CC(C)n1cc(S(N)(=O)=NC(=O)Nc2c3c(nc4c2CCC4(C)C)CCC3)c(CO)n1` (single isomer, unassigned) [Compound 653a, (R) or (S)-N′-((3,3-dimethyl-1,2,3,5,6,7-hexahydrodicyclopenta [b,e]pyridin-8-yl)carbamoyl)-3-(hydroxymethyl)-1-isopropyl-1H-pyrazole-4-sulfonimidamide], which IC50 [7] is on record?
A: 5 to 30 µM

Q: For `CCc1c(C2CC2)nc2c(c1NC(=O)N=S(N)(=O)c1cnc(C(C)(C)O)s1)CCC2` (single isomer, unassigned) [Compound 675a, (R) or (S)-N′-((2-cyclopropyl-3-ethyl-6,7-dihydro-5H-cyclopenta[b]pyridin-4-yl)carbamoyl)-2-(2-hydroxypropan-2-yl)thiazole-5-sulfonimidamide], which IC50 [4] is on record?
A: 1 to 5 µM

Q: With `CCn1ccc([S@@](N)(=O)=NC(=O)Nc2c3c(nc4c2CCC42CC2)CCC3)n1` [Compound 604a] as the compound, how does the IC50 [7] read?
A: 5 to 30 µM

Q: For `CC(C)c1ncc(F)c(C(C)C)c1NC(=O)N=S(N)(=O)c1ncc(C(C)(C)O)s1` (single isomer, unassigned) [Compound 165b], which IC50 [2] is on record?
A: 5 to 30 µM

Q: How did the IC50 [7] turn out when `CCc1nc2c(c(NC(=O)N=S(N)(=O)c3cnc(C(C)(C)O)s3)c1C1CC1)CCC2` (centres unmarked) [Compound 630, N′-((3-cyclopropyl-2-ethyl-6,7-dihydro-5H-cyclopenta[b]pyridin-4-yl)carbamoyl)-2-(2-hydroxypropan-2-yl)thiazole-5-sulfonimidamide] was run?
A: 0.2 to 1 µM

Q: Which IC50 (Homo sapiens, THP-1, Table B1, numeric bounds, read-out: Average IC50 of compounds in hTHP-1 assay: hTHP-1 IC50) does the source give for `CCCc1cc(NC(=O)N=S(N)(=O)c2cnc(C(C)(C)O)s2)c2c(n1)CCC2` (centres unmarked) [Compound 112, 2-(2-hydroxypropan-2-yl)-N′-((2-propyl-6,7-dihydro-5H-cyclopenta[b]pyridin-4-yl)carbamoyl)thiazole-5-sulfonimidamide] here?
A: > 30 µM

Q: How did the IC50 (Table B3, hTHP-1 assay, class symbols, read-out: IC50) turn out when `Cc1c(C(F)(F)F)nc2c(c1NC(=O)N=S(N)(=O)c1nn(C(F)F)cc1F)CCC2` (single isomer, unassigned) [Example 562] was run?
A: 0.2 to 1 µM

Q: Which IC50 [1] does the source give for `Cc1cn(C(C)C)nc1S(N)(=O)=NC(=O)Nc1c2c(nc3c1CCC3)CCC2` (single isomer, unassigned) [Compound 687a, (S) or (R)-N′-((1,2,3,5,6,7-hexahydrodicyclopenta [b,e]pyridin-8-yl)carbamoyl)-1-isopropyl-4-methyl-1H-pyrazole-3-sulfonimidamide] here?
A: > 30 µM

Q: For `CC(C)n1cc(F)c(S(N)(=O)=NC(=O)Nc2c3c(nc4c2CC[C@H]4C)CCC3)n1` (single isomer, unassigned) [Example 757, (R) or (S)-4-fluoro-1-isopropyl-N′-(((R)-3-methyl-1,2,3,5,6,7-hexahydrodicyclopenta[b,e]pyridin-8-yl)carbamoyl)-1H-pyrazole-3-sulfonimidamide], which IC50 [6] is on record?
A: 0.008 to 0.04 µM

Q: For `CC(C)(O)c1csc(S(N)(=O)=NC(=O)Nc2c3c(nc(C(F)(F)F)c2C2CC2)CCC3)c1` (centres unmarked) [Example 609, N′-((3-cyclopropyl-2-(trifluoromethyl)-6,7-dihydro-5H-cyclopenta[b]pyridin-4-yl)carbamoyl)-4-(2-hydroxypropan-2-yl)thiophene-2-sulfonimidamide], which IC50 [3] is on record?
A: 0.2 to 1 µM

Q: With `NS(=O)(=NC(=O)Nc1c2c(nc(C(F)(F)F)c1C1CC1)CCC2)c1nn(C(F)F)cc1F` (centres unmarked) [Compound 984a] as the compound, how does the IC50 (Table B3, hTHP-1 assay, class symbols, listed as Compound 984a, read-out: IC50) read?
A: 5 to 30 µM

Q: With `CCn1cc(F)c(S(N)(=O)=NC(=O)Nc2c3c(nc(C(F)(F)F)c2C2CC2)CCC3)n1` (single isomer, unassigned) [Example 773, (R) or (S)-N′-((3-cyclopropyl-2-(trifluoromethyl)-6,7-dihydro-5H-cyclopenta[b]pyridin-4-yl)carbamoyl)-1-ethyl-4-fluoro-1H-pyrazole-3-sulfonimidamide] as the compound, how does the IC50 [6] read?
A: 0.04 to 0.2 µM

Q: `CCn1cc(F)c(S(N)(=O)=NC(=O)Nc2c3c(nc(C(F)(F)F)c2C2CC2)CCC3)n1` (centres unmarked) [Compound 983] was tested. Which IC50 [3] did it give?
A: 0.04 to 0.2 µM

Q: `CC1CCc2c1nc1c(c2NC(=O)N=S(N)(=O)c2cnn(C(C)C)c2)CCC1` (single isomer, unassigned) [Compound 171b, (R, S) and (R, R) or (S, R) and (S, S)-1-Isopropyl-N′-((3-methyl-1,2,3,5,6,7-hexahydrodicyclopenta [b,e]pyridin-8-yl)carbamoyl)-1H-pyrazole-4-sulfonimidamide] was tested. Which IC50 [4] did it give?
A: 5 to 30 µM

Q: For `Cc1c(C(F)(F)F)nc2c(c1NC(=O)N=[S@@](N)(=O)c1ccn(C)n1)CCC2` [Compound 730b], which IC50 [7] is on record?
A: 1 to 5 µM

Q: With `CO[C@H]1COc2c(S(N)(=O)=NC(=O)Nc3c(C)c(C(F)(F)F)nc4c3CCC4)cnn2C1` (stereo partly drawn) [Example 564, (6R)-6-methoxy-N′-((3-methyl-2-(trifluoromethyl)-6,7-dihydro-5H-cyclopenta[b]pyridin-4-yl)carbamoyl)-6,7-dihydro-5H-pymzolo[5,1-b][1,3]oxazine-3-sulfonimidamide] as the compound, how does the IC50 [3] read?
A: 1 to 5 µM

Q: Which IC50 [7] does the source give for `CCc1nc2c(c(NC(=O)N=S(N)(=O)c3sc(C(C)(C)O)cc3F)c1C1CC1)CCC2` (centres unmarked) [Compound 631, N′-((3-cyclopropyl-2-ethyl-6,7-dihydro-5H-cyclopenta[b]pyridin-4-yl)carbamoyl)-3-fluoro-5-(2-hydroxypropan-2-yl)thiophene-2-sulfonimidamide] here?
A: 0.04 to 0.2 µM

Q: With `Cc1c(C2CC2)nc2c(c1NC(=O)N=S(N)(=O)c1cnc(C(C)(C)O)s1)CCC2` (single isomer, unassigned) [Compound 124a, (S) or (R)-N′-((2-cyclopropyl-3-methyl-6,7-dihydro-5H-cyclopenta[b]pyridin-4-yl)carbamoyl)-2-(2-hydroxypropan-2-yl)thiazole-5-sulfonimidamide] as the compound, how does the IC50 [5] read?
A: 5 to 30 µM

Q: How did the IC50 [2] turn out when `CC(C)c1cncc(C(C)C)c1NC(=O)N=S(N)(=O)c1cnc(C(C)(C)O)s1` (centres unmarked) [Compound 160, N′-((3,5-diisopropylpyridin-4-yl)carbamoyl)-2-(2-hydroxypropan-2-yl)thiazole-5-sulfonimidamide] was run?
A: 5 to 30 µM

Q: How did the IC50 [2] turn out when `CC(C)c1ncc(F)c(C(C)C)c1NC(=O)N=S(N)(=O)c1nc(C(C)(C)O)cs1` (centres unmarked) [Compound 163, N′-((5-fluoro-2,4-diisopropylpyridin-3-yl)carbamoyl)-4-(2-hydroxypropan-2-yl)thiazole-2-sulfonimidamide] was run?
A: 0.2 to 1 µM

Q: With `CCn1nc(S(N)(=O)=NC(=O)Nc2c3c(nc4c2CC[C@H]4C)CCC3)cc1CO` (stereo partly drawn) [Example 590, 1-Ethyl-5-(hydroxymethyl)-N′-(((R)-3-methyl-1,2,3,5,6,7-hexahydrodicyclopenta[b,e]pyridin-8-yl)carbamoyl)-1H-pyrazole-3-sulfonimidamide] as the compound, how does the IC50 [3] read?
A: 1 to 5 µM

Q: How did the IC50 [2] turn out when `Cc1nc(C(C)(C)O)ccc1S(N)(=O)=NC(=O)Nc1c2c(nc3c1CCC3)CCC2` (centres unmarked) [Compound 157, N′-((1,2,3,5,6,7-hexahydrodicyclopenta[b,e]pyridin-8-yl)carbamoyl)-6-(2-hydroxypropan-2-yl)-2-methylpyridine-3-sulfonimidamide] was run?
A: 5 to 30 µM

Source: patent US20230031406A1, “COMPOUNDS AND COMPOSITIONS FOR TREATING CONDITIONS ASSOCIATED WITH NLRP ACTIVITY” (Novartis AG, priority 2018, published 2023)
